Results: patent US7671054B1, “Reverse-turn mimetics and method relating thereto” (Choongwae Pharma Corporation, priority 2001, dated 2010)
Like-named read-outs stand apart in the source and are kept apart here.

Test system: TCF4/β-catenin transcription (TOPFlash) in SW480 cells
Assay: Reporter gene assay (TOPFlash luciferase)
Assay type: cell-based
Settings: Homo sapiens
Experimental: SW480 cells were transfected with the usage of Superfect™ transfect reagent (Qiagen, 301307). Cells were trypsinized briefly 1 day before transfection and plated on 6 well plate (5×10^5 cells/well) so that they were 50-80% confluent on the day of transfection.
Four microgram (TOPFlash) and one microgram (pRL-null) of DNAs were diluted in 150 μl of serum-free medium, and 30 μl of Superfect™ transfect reagent was added. The DNA-Superfect mixture was incubated at room temperature for 15 min, and then, 1 ml of 10% FBS DMEM was added to this complex for an additional 3 hours of incubation. While complexes were forming, cells were washed with PBS twice without antibiotics.
The DNA-Superfect™ transfect reagent complexes were applied to the cells before incubating at 37° C. at 5% CO2 for 3 hours. After incubation, recovery medium with 10% FBS was added to bring the final volume to 1.18 ml. After 3 hours incubation, the cells were harvested and reseeded to 96 well plate (3×10^4 cells/well). After overnight incubation at 37° C. at 5% CO2, the cells were treated with Compound A for 24 hours. Finally, the activity was checked by means of luciferase assay (Promega, E1960).

[1] = SW480, Table 4, Reporter gene assay as described in Example 6, read-out: IC50

IC50 [1] [µM]	SMILES	IC50 (SW480) [µM]
1.3 ± 0.1	C=CCN1CC(=O)N2[C@@H](Cc3ccc(O)cc3)C(=O)N(Cc3cccc(OC(F)(F)F)c3)C[C@@H]2N1C(=O)NCc1ccccc1 [Compound 206]	
12.7 ± 0.7	CN1CC(=O)N2[C@@H](Cc3ccc(O)cc3)C(=O)N(Cc3cccc(N4CCCC4=O)c3)C[C@@H]2N1C(=O)NCc1ccccc1 [Compound 150]	
4.4 ± 0.2	C=CCN1CC(=O)N2[C@@H](CN([C@H](C)c3ccc(F)cc3F)C(=O)[C@@H]2Cc2ccc(O)cc2)N1C(=O)NCc1ccccc1 [Compound 188]	
7.1	CN(C)c1cccc(CN2C[C@H]3N(C(=O)CN(C)N3C(=O)NCc3ccccc3)[C@@H](Cc3ccc(O)cc3)C2=O)c1 [Compound 38]	
31 ± 6.4	C=C(C)CN1CC(=O)N2[C@@H](Cc3ccc(O)cc3)C(=O)N(Cc3ccc(Cl)c4cccnc34)C[C@@H]2N1C(=O)NCc1ccccc1 [Compound 149]	
9.3 ± 1.6	CN1CC(=O)N2[C@@H](Cc3ccc(O)cc3)C(=O)N(Cc3cccc4c3cnn4C)C[C@@H]2N1C(=O)NCc1ccccc1 [Compound 56]	
1.7 ± 0.3	C=CCN1CCN2[C@@H](Cc3ccc(O)cc3)C(=O)N(Cc3ccc(OC)cc3OC)C[C@@H]2N1C(=O)NCc1ccccc1 [Compound 213]	
1.9 ± 0.1	C=CCN1CC(=O)N2[C@@H](Cc3ccc(O)cc3)C(=O)N(Cc3cccc4c3OCCO4)C[C@@H]2N1C(=O)NCc1ccc(Cl)c(Cl)c1 [Compound 204]	
	C=CCN1CC(=O)N2[C@@H](Cc3ccc(OC(=O)NCCN(C)C)cc3)C(=O)N(Cc3ccc(F)cc3F)C[C@@H]2N1C(=O)NCc1ccccc1 [Compound 173]	1.8 ± 0.2
4.7 ± 3.5	C=CCN1CC(=O)N2[C@@H](Cc3ccc(O)cc3)C(=O)N(Cc3cccc4sc(-c5ccccc5)nc34)C[C@@H]2N1C(=O)NCc1ccccc1 [Compound 221]	
2.1 ± 0.2	C#CCN1CC(=O)N2[C@@H](Cc3ccc(O)cc3)C(=O)N(Cc3ccc(F)cc3F)C[C@@H]2N1C(=O)NCc1ccccc1 [Compound 144]	
2.6 ± 0.3	CCCN1CC(=O)N2[C@@H](Cc3ccc(O)cc3)C(=O)N(Cc3ccc(Cl)c4cccnc34)C[C@@H]2N1C(=O)NCc1ccccc1 [Compound 148]	
7.2 ± 1.4	CCCN(C)c1cccc(CN2C[C@H]3N(C(=O)CN(C)N3C(=O)NCc3ccccc3)[C@@H](Cc3ccc(O)cc3)C2=O)c1 [Compound 55]	
1.1 ± 0.3	C=CCc1nc2c(CN3C[C@H]4N(C(=O)CN(CC=C)N4C(=O)NCc4ccccc4)[C@@H](Cc4ccc(O)cc4)C3=O)cccc2s1 [Compound 220]	
30.5 ± 4.1	CCCN1CC(=O)N2[C@@H](Cc3ccc(O)cc3)C(=O)N(Cc3cc(N(C)C(C)C)cc(C(F)(F)F)c3)C[C@@H]2N1C(=O)NCc1ccccc1 [Compound 155]	
8.6 ± 0.4	CN1CC(=O)N2[C@@H](Cc3ccc(O)cc3)C(=O)N(Cc3ccc(F)cc3F)C[C@@H]2N1C(=O)NCc1ccc(F)cc1 [Compound 200]	
4.3 ± 0.8	CN1CC(=O)N2[C@@H](Cc3ccc(NC=O)cc3)C(=O)N(Cc3cccc4ccccc34)C[C@@H]2N1C(=O)NCc1ccccc1 [Compound 68]	
1 ± 0.2	C#CCN1CC(=O)N2[C@@H](Cc3ccc(O)cc3)C(=O)N(Cc3ccc(Cl)c4cccnc34)C[C@@H]2N1C(=O)NCc1ccccc1 [Compound 138]	
19 ± 7.1	CC(C)N(C)c1ccc(F)c([C@H](C)N2C[C@H]3N(C(=O)CN(C)N3C(=O)NCc3ccccc3)[C@@H](Cc3ccc(O)cc3)C2=O)c1 [Compound 65]	

IC50 [1] [µM]	SMILES	IC50 (SW480) [µM]
3.8	CN1CC(=O)N2[C@@H](Cc3ccc(O)cc3)C(=O)N(Cc3ccc(Cl)c(Cl)c3)C[C@@H]2N1C(=O)NCc1ccccc1 [Compound 29]	
11.4	CN1CC(=O)N2[C@@H](Cc3ccc(O)cc3)C(=O)N(Cc3cccc4ccccc34)C[C@@H]2N1C(=S)NCc1ccccc1 [Compound 35]	
6.4 ± 0.4	CCCN1CC(=O)N2[C@@H](Cc3ccc(O)cc3)C(=O)N(Cc3cccc(N4CCOCC4)c3)C[C@@H]2N1C(=O)NCc1ccccc1 [Compound 124]	
2.7 ± 0.3	C#CCN1CC(=O)N2[C@@H](Cc3ccc(O)cc3)C(=O)N(Cc3ccc(Cl)c(N4CCOCC4)c3)C[C@@H]2N1C(=O)NCc1ccccc1 [Compound 140]	
12.6 ± 1.2	CN1CC(=O)N2[C@@H](Cc3ccc(O)cc3)C(=O)N(Cc3ccccc3N3CCOCC3)C[C@@H]2N1C(=O)NCc1ccccc1 [Compound 97]	
5.1	C[C@H](c1ccccc1)N1CC2N(C(=O)CN(C)N2C(=O)NCc2ccccc2)[C@@H](Cc2ccc(O)cc2)C1=O (stereo partly drawn) [Compound 20]	
25.3 ± 6.6	CCN(CC)c1cc(F)ccc1[C@H](C)N1C[C@H]2N(C(=O)CN(C)N2C(=O)NCc2ccccc2)[C@@H](Cc2ccc(O)cc2)C1=O [Compound 64]	
0.9 ± 0.02	C=CCN1CC(=O)N2[C@@H](Cc3ccc(O)cc3)C(=O)N(Cc3cccc4c3OCCN4C)C[C@@H]2N1C(=O)NCc1ccccc1 [Compound 158]	
10.4	COc1ccc(CN2CC3N(C(=O)CN(C)N3C(=O)NCc3ccccc3)[C@@H](Cc3ccc(O)cc3)C2=O)cc1 (stereo partly drawn) [Compound 22]	
3.8 ± 2.7	C=CCN1CC(=O)N2[C@@H](Cc3ccc(O)cc3)C(=O)N(Cc3ccc(Cl)c4scnc34)C[C@@H]2N1C(=O)NCc1ccccc1 [Compound 222]	
3.3 ± 0.2	[2H]c1cc(C[C@H]2C(=O)N(Cc3cccc4ccccc34)C[C@H]3N2C(=O)CN(C)N3C(=O)NCc2ccccc2)cc([2H])c1O [Compound 166]	
5.8 ± 0.3	C[C@H](c1ccc(Cl)c2cccnc12)N1CC2N(C(=O)CN(C)N2C(=O)NCc2ccccc2)[C@@H](Cc2ccc(O)cc2)C1=O (stereo partly drawn) [Compound 198]	
2.2 ± 0.3	C#CCN1CC(=O)N2[C@@H](Cc3ccc(O)cc3)C(=O)N(Cc3cccc(OCCN4CCOCC4)c3)C[C@@H]2N1C(=O)NCc1ccccc1 [Compound 131]	
4.1 ± 0.5	CN1CC(=O)N2[C@@H](Cc3ccc(O)cc3)C(=O)N(Cc3cccc(N4CCCC4)c3)C[C@@H]2N1C(=O)NCc1ccccc1 [Compound 63]	
9.7	CN1CC(=O)N2[C@@H](Cc3ccc(O)cc3)C(=O)N(Cc3ccc4ccccc4n3)C[C@@H]2N1C(=O)NCc1ccccc1 [Compound 39]	
2.4 ± 0.5	C=CCN1CC(=O)N2[C@@H](Cc3ccc(O)cc3)C(=O)N(Cc3ccc(Cl)c(N(C)C)c3)C[C@@H]2N1C(=O)NCc1ccccc1 [Compound 129]	
9 ± 1.5	CN(C1CC1)C1CC=CC=C1CN1C[C@H]2N(C(=O)CN(C)N2C(=O)NCc2ccccc2)[C@@H](Cc2ccc(O)cc2)C1=O (stereo partly drawn) [Compound 53]	
0.4 ± 0.1	C=CCN1CC(=O)N2[C@@H](Cc3ccc(O)cc3)C(=O)N(Cc3cccc4cccnc34)C[C@@H]2N1C(=O)NCc1ccccc1 [Compound 128]	
2.3 ± 0.2	C=CCN1CC(=O)N2[C@@H](Cc3ccc(O)cc3)C(=O)N(Cc3ccc(F)cc3F)C[C@@H]2N1C(=O)NCc1ccc(Cl)c(Cl)c1 [Compound 179]	

SMILES	IC50 [1] [µM]	IC50 (SW480) [µM]
C=CCN1CC(=O)N2[C@@H](Cc3ccc(OP(=O)(O)O)cc3)C(=O)N(Cc3ccc(Cl)c(N(C)C)c3)C[C@@H]2N1C(=O)NCc1ccccc1 [Compound 161]	1.8 ± 0.2	
C=CCN1CC(=O)N2[C@@H](Cc3ccc(OP(=O)(O)O)cc3)C(=O)N(Cc3cc(F)c(F)cc3N(C)C)C[C@@H]2N1C(=O)NCc1ccccc1 [Compound 163]	1.7 ± 0.5	
C=CCN1CC(=O)N2[C@@H](Cc3ccc(O)cc3)C(=O)N(Cc3ccc(F)cc3F)C[C@@H]2N1C(=O)NCc1ccccc1 [Compound 143]	1.3 ± 0.2	
C=CCN1CC(=O)N2[C@@H](Cc3ccc(OP(=O)(O)O)cc3)C(=O)N(Cc3ccccc3)C[C@@H]2N1C(=O)NCc1ccccc1 [Compound 174]	1 ± 0.1	
